{
  "source": "patent US20240245770A1",
  "about": "“COMPOSITIONS AND METHODS FOR TREATING NEUROMUSCULAR DISORDERS” (The Regents of the University of California, priority 2019, published 2024)",
  "type_in_all_cases": "cell-based, human",
  "key": {"OSCSCs": {"tested_on": "OSCSCs", "assay": "NAC blocking of H2O2 mediated cell death in OSCSCs", "details": "NAC 20 mM, 24 hours, FIG. 68"}, "[1]": {"tested_on": "Oral squamous carcinoma cells (OSCCs) and Oral squamous stem cell carcinoma (OSCSCs)", "assay": "NAC blocking of CDDP mediated cell death (PI staining, flow cytometry)", "details": "NAC 20 mM, 24 hours, OSCCs and OSCSCs", "procedure": "Testing and selection of the best NAC to be used in ALS treatment. […] Afterwards OSCCs and OSCSCs were detached, and the viability of cells was determined after PI staining followed by flow cytometric analysis. In this figure Forward and Side Scatters (Fs/ss) were assessed since decrease in the Fs/ss is seen in cells undergoing cell death.\nTesting and selection of the best NAC to be used in ALS treatment. […] Afterwards OSCCs and OSCSCs were detached, and the viability of cells was determined after PI staining followed by flow cytometric analysis. In this figure the percentage of PI stained cells were assessed."}, "PBMCs": {"tested_on": "PBMCs", "assay": "PBMC flow cytometry, percentages of immune subsets", "procedure": "Percentage of immune subsets in PBMCs in lab blood drawn. PBMC were isolated from peripheral blood of donors using ficoll-hypaque gradient centrifugation. The percentages of each cell subset in PBMCs were determined by flow cytometric analysis after staining with specific fluorescent conjugated antibodies directed to the cell surface receptors. No significant differences in the percentages of immune subsets between the donors (FIG. 1A and FIG. 1B)."}, "[2]": {"tested_on": "Dental Pulp Stromal Cells (DPSCs)", "assay": "NAC blocking of H2O2 mediated cell death in DPSCs", "details": "NAC 20 mM, 24 hours, FIG. 67", "procedure": "Testing and selection of the best NAC to be used in ALS treatment. […] Afterwards DPSCs were detached, and the viability of cells was determined after PI staining followed by flow cytometric analysis. In this figure the decrease in FS/ss and the percentage of PI stained cells were assessed."}, "[3]": {"details": "ALS patient H107 JC, Post-NAC, Pre-young plasma"}, "[4]": {"details": "ALS patient H110 RS, Post-NAC infusion"}},
  "data": [
    {"smiles": "CC(=O)N[C@@H](CS)C(=O)O", "note": "[NAC, N-Acetyl-Cysteine]", "values": [
      {"measurement": "H2O2 mediated cell death (Fs/ss and PI positive cells)", "setting": "OSCSCs", "result": "blocks H2O2 mediated Cell death in OSCSCs"},
      {"measurement": "CDDP mediated cell death, Forward and Side Scatters (Fs/ss)", "setting": "[1]; FIG. 65", "result": "blocks CDDP mediated Cell death in Oral tumors"},
      {"measurement": "CDDP mediated cell death, percentage of PI stained cells", "setting": "[1]; FIG. 66", "result": "blocks CDDP mediated Cell death in Oral tumors"},
      {"measurement": "CD4, percentage of immune subset", "setting": "PBMCs; [3]", "result": 31.4, "unit": "%"},
      {"measurement": "CD8, percentage of immune subset", "setting": "PBMCs; [3]", "result": 15.1, "unit": "%"},
      {"measurement": "CD14, percentage of immune subset", "setting": "PBMCs; [3]", "result": 15.0, "unit": "%"},
      {"measurement": "CD19, percentage of immune subset", "setting": "PBMCs; [3]", "result": 24.6, "unit": "%"},
      {"measurement": "NK, percentage of immune subset", "setting": "PBMCs; [3]", "result": 11.5, "unit": "%"},
      {"measurement": "NKT, percentage of immune subset", "setting": "PBMCs; [3]", "result": 3.58, "unit": "%"},
      {"measurement": "total of immune subsets", "setting": "PBMCs; [3]", "result": 97.6, "unit": "%"},
      {"measurement": "CD4, percentage of immune subset", "setting": "PBMCs; [4]", "result": 27.6, "unit": "%"},
      {"measurement": "CD8, percentage of immune subset", "setting": "PBMCs; [4]", "result": 20.4, "unit": "%"},
      {"measurement": "CD14, percentage of immune subset", "setting": "PBMCs; [4]", "result": 27.1, "unit": "%"},
      {"measurement": "CD19, percentage of immune subset", "setting": "PBMCs; [4]", "result": 10.0, "unit": "%"},
      {"measurement": "NK, percentage of immune subset", "setting": "PBMCs; [4]", "result": 15.3, "unit": "%"},
      {"measurement": "total of immune subsets", "setting": "PBMCs; [4]", "result": 100.4, "unit": "%"},
      {"measurement": "H2O2 mediated cell death (Fs/ss and PI positive cells)", "setting": "[2]", "result": "blocks H2O2 mediated Cell death in DPSCs"}
    ]}
  ]
}
